The source of these data is patent US6599499B1, “Uses of diterpenoid triepoxides as an anti-proliferative agent” (priority 1999, dated 2003).

One test deals with phosphorylated p53. In words: p53 phosphorylation by in vivo [32P]orthophosphate labeling of HT1080 cells. In kind it is cell-based, human. Conditions: HT1080, triptolide 20 ng/ml, 3 h. How it is done:
In Vivo [^32P]Orthophosphate Labeling. Subconfluent HT1080 cells were pretreated with 20 ng/ml triptolide for 2 h in Dulbecco's modified Eagle's medium supplemented with 10% fetal bovine serum and antibiotics. These cells were washed twice with 37 ° C. labeling medium (Dulbecco's modified Eagle's medium, 10% fetal bovine serum dialyzed against phosphate-free) lacking sodium phosphate. Cells were then labeled for an additional 1 h with the labeling medium containing 1 mCi/ml [32P]orthophosphate and 20 ng/ml triptolide. The labeling medium was removed, and the cells were washed three times with cold Tris-buffered saline (TBS). The cells were scraped in 1 ml of lysis buffer (1% Nonidet P40, 1% sodium deoxycholate, 0.1% SDS, 0.15 M NaCl, 0.01 M sodium phosphate, pH 7.2, 2 mM EDTA, 50 mM sodium fluoride, 0.2 mM sodium vanadate, and 100 units/ml aprotinin) and kept on ice for 10 min. Lysates were passed through 27-gauge needles and spun at 11,000×g for 10 min, and 100 μg of the supernatants were subjected to immunoprecipitation with p53 mAb (Ab-6) conjugated with agarose for 4 h. Samples were then spun at 2500 rpm at 4° C. for 5 min and washed three times with the lysis buffer. The pellets were boiled in SDS sample buffer and analyzed on 10% SDS-PAGE. The bands were visualized and quantified by Optiquant Phosphorlmager.

The subject of another test is p53 mRNA. In words: p53 mRNA by RT-PCR in MCF-7 cells. Format: cell-based, human. To be noted: MCF-7 cells treated for 16 h. As to the method: RT-PCR. RNA was prepared from MCF-7 cells using Rneasy Mini Kit from Qiagen Inc. (Valencia, Calif.). cDNAs were prepared using M-MLV reverse transcriptase (Gibco) with 2 μg of total RNA. 1/20 of total cDNA was used in limited (25 cycles) PCR reactions using Taq polymerase (Gibco). The following primer pairs were used: p53 [SEQ ID NO:1] 5′-[…]-3′ and 5′-[SEQ ID NO:2] TCTTCUTXGGCTGGGGAGAG-3′, mdm2, [SEQ ID NO:3] 5′-[…]-3′ and [SEQ ID NO:4] 5′-[…]-3′, p21, [SEQ ID NO:5] 5′-[…]-3′ and [SEQ ID NO:6] 5′-[…]-3′, and glyceraldehyde-3-phosphate dehydrogenase (GAPDH)- [SEQ ID NO:7] 5′-[…]-3′ and [SEQ ID NO:8] 5′-[…]-3′.
In the experiments shown in FIG. 5, RT-PCR was performed using 2 μg of total RNAs extracted from MCF-7 cells. […] GADPH was used as a loading control. The plasmid pBP100-GL2 which contains a p53-binding site in the mdm2 promoter was transiently transfected into MCF-7 cells, and cellular lysates were used for the luciferase assay.

Turning to `CC(C)[C@]12O[C@H]1[C@@H]1O[C@]13[C@]1(O[C@H]1C[C@H]1C4=C(CC[C@@]13C)C(=O)OC4)[C@@H]2O` [PG490, triptolide], the “increase in phosphorylated p53 compared with untreated cells” value with phosphorylated p53 is given as 2-3 fold. In the test with p53 mRNA, the “p53 mRNA level” value is recorded as “slightly reduced”.
